Experimental data as given in patent US20240099298A1, “BIOINSECTICIDAL COMPOSITIONS CONTAINING MONOTERPENES AND METHODS OF USE THEREOF” (priority 2017, published 2024).
Converted amounts (≈) assume the structure as drawn.

Key:
[1] = system: Megalurothrips usitatus (Bagrall) (thrips); test: Median lethal concentration fumigation test, thrips; settings: adult thrips, exposed one hour, mortality observed in 24 hours
Description: (§1) Median Lethal Concentration Tests. […] The species tested included Thrips (M. usitatus), spider mite (T. cinnabarinus), melon fly (B. cucuribitae), cockroach (B. lateralis), housefly (M. domestica), mosquito (A. aegypti), parasitic wasp (T. chilonis) and fruit fly (Drosophila melanogaster). After being exposed to the test chemicals for one hour, adult Thrips, spider mites, and roaches were transferred to another flask. In addition to fresh water, adult Thrips, spider mites, and roaches were then respectively fed with cowpea, fresh blade of eggplant, and peanut oil via filter. […] Mortality of melon fly was observed after three hours of exposure.

[2] = system: Aedes aegypti (Linnaeus) (mosquito); settings: adult mosquito, exposed 30 minutes, mortality in 24 hours
Description: as §1

[3] = system: Bactrocera cucuribitae (Coquillett) (melon fly); settings: melon fly
Description: as §1

[4] = system: Blatta lateralis (Walker) (cockroach); settings: cockroach second instar nymphs, exposed one hour
Description: as §1

[5] = system: Musca domestica (Linnaeus) (housefly); settings: adult housefly, exposed one hour, mortality in 24 hours
Description: as §1

[6] = system: Tetranychus cinnabarinus (Boisduval) (spider mites); settings: spider mites, exposed one hour
Description: as §1

[7] = system: Thrips, M. usitatus; test: Headspace fumigation toxicity of linalool mixed in peanut oil; type: in vivo, Megalurothrips usitatus; settings: thrips exposed to headspace above the solution
[8] = system: H. picinus (Nitidulid beetle); test: Median lethal time (LT50) test, Nitidulid beetle; type: in vivo, Haptoncus picinus
Description: (§2) All treatments and controls were in triplicate.
Toxicity of Monoterpenes as Fumigants. […] Therefore, to determine how fast the monoterpenes act as fumigants, it was necessary to determine their LT50 values for the target organisms.

[9] = system: Aedes aegypti (mosquito); test: Median knockdown concentration (KC50) test, mosquito; type: in vivo
Description: as §2
(§3) Knockdown Activity of Monoterpenes.

[10] = system: Musca domestica (housefly); test: Median knockdown concentration (KC50) test, housefly; type: in vivo; settings: Musca domestica
Description: as §2, §3

[11] = target: recombinant gamma-aminobutyric acid receptor-associated protein (rGABARAP) (Frankliniella occidentalis, UniProt A0A6J1T1Q2); test: Isothermal titration calorimetry (ITC) binding to rGABARAP; settings: 25° C., pH 7.4
Description: Preparation of recombinant GABARAP (rGABARAP) protein. RNA was extracted from F. occidentalis and cDNA was then synthesized. GABARAP (GenBank accession No. LOC113211372) was obtained after PCR amplification (Stafford-Banks, et al. (2014) Plos One 9:e94447).
(§4) The isothermal titration thermal binding measurements were performed with an ITC-200 calorimeter (GE Healthcare, Boston, MA) at 25° C. in a buffer containing 50 mM Tris-HCl and 100 mM NaCl (pH 7.4). […] The MicroCal Origin 7.0 software system was used for data processing. The first run was a pre-run and was excluded from the final data. The amount of protein in the sample pool was constant. […] The experimental bimolecular interaction data from the 18 drops were used to calculate the dissociation constant. The dissociation constant […] was calculated as 1/K (Li, et al. (2018) RSC Advances 8:18952-18958).

[12] = target: T1, rGABARAP^Y174A (Frankliniella occidentalis, UniProt A0A6J1T1Q2); test: MST binding to rGABARAP mutant; settings: read-out: Kd value, MST
Description: Interaction between ME and rGABARAP. A Nano Temper Monolith NT.115 MST system (Nano Temper, Munich, Germany) was used to assess the binding affinities between the target compounds and rGABARAP according to the published procedures (Zan, et al. (2020) Journal of Agricultural and Food Chemistry 68:6280-6285). Spinosyn A was used as a chemical positive control. Spinosyn A (≥1 nM) can trigger a change of the Cl^− current of insect neuron GABAAR, which is considered to be an insecticidal action mechanism of spinosyn A (Watson (2001) Pesticide Biochemistry and Physiology 71:20-28). Ovalbumin (OVA) (Sangon Biotech, Shanghai, China) is a control protein consisting of 385 amino acid residues. The interaction between OVA and ME was used as a protein control experiment (Huntington, et al. (1995) Protein Science 4:613-621).
(§5) Preparation of rGABARAP Mutant and Interaction Between ME and rGABARAP Mutant. […] DNAman was used to convert the nucleic acid sequence into an amino acid sequence and find the Y174 site. Y174 was mutated to A174. The rGABARAP mutant gene loaded into the pMCSG19 vector and the His tags at both ends of the sequence were retained to construct a prokaryotic expression plasmid. The carrier contained a maltose binding protein (MBP) tag that was not cut for verification. However, MBP and ME were used as treatment controls. The mutant plasmid was constructed in Sangon Biotech (Shanghai, China). The protein expression, purification, and desalting procedures of rGABARAP^Y174A mutant and rGABARAP were the same. Subsequently, the binding kinetics of ME and rGABARAP^Y174A were tested by MST and ITC.

[13] = target: T1, rGABARAP^Y174A; test: ITC binding to rGABARAP mutant; settings: read-out: Kd value, ITC
Description: as §4, §5

T1 sequence (A0A6J1T1Q2 entry or part of it, stated change not applied): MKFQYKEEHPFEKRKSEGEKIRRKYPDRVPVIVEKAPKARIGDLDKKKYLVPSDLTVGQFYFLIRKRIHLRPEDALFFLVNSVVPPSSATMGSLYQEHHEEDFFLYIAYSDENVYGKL
Chain of recombinant gamma-aminobutyric acid receptor-associated protein (rGABARAP) (A0A6J1T1Q2 1-118): as the sequence (A0A6J1T1Q2 entry or part of it, stated change not applied) above

## C=CC(C)(O)CCC=C(C)C (stereo not shown) [Linalool, 3,7-dimethylocta-1,6-dien-3-o1]
[1]
  LC50 (fiducial limits): 2.50 µg/mL (≈ 16.2 µM)
  LC90 (fiducial limits): 6.4 µg/mL (≈ 41.5 µM)
[2]
  LC50 (fiducial limits): >243 µg/mL
  LC90 (fiducial limits): >243 µg/mL
[3]
  LC50 (fiducial limits): >243 µg/mL
  LC90 (fiducial limits): >243 µg/mL
[4]
  LC50 (fiducial limits): 345 µg/mL (≈ 2240 µM)
  LC90 (fiducial limits): 1700 µg/mL (≈ 11000 µM)
[5]
  LC50 (fiducial limits): 30.6 µg/mL (≈ 198 µM)
  LC90 (fiducial limits): 176 µg/mL (≈ 1140 µM)
[6]
  LC50 (fiducial limits): 550 µg/mL (≈ 3570 µM)
  LC90 (fiducial limits): 4330 µg/mL (≈ 28100 µM)
[7]
  LC50 of linalool mixed in peanut oil: 4.7%
[8]
  LT50 (fiducial limits): 1.58 h
[9]
  time within which the insects responded: ≤ 20 min
[9]; 20 Minutes
  KC50 (fiducial limits): >243 µg/mL
[9]; 30 Minutes
  KC50 (fiducial limits): 69.0 µg/mL
[10]; 20 Minutes
  KC50 (fiducial limits): >243 µg/mL
[10]; 30 Minutes
  KC50 (fiducial limits): 192 µg/mL
[11]
  Kd: 6.89 µM
[12]
  Kd: 16.3 ± 6.79 µM
[13]
  Kd: 8.92 µM
